PubChem BioAssay (NCI)
Values joined by “and” are separate entries in the source; they are usually repeats but may differ in a detail not shown here. Equal values may be shown once.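 Tested at 5 concentrations; 48 h exposure; 96-well plates; endpoints linearly interpolated, else capped at highest concentration. Definition used: TGI = concentration required for complete inhibition of growth.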

Columns and labels:
Experiment in all cases: NCI tumour cell line growth inhibition, 48 h
MOLT-4 leukemia = test system: MOLT-4 leukemia
COLO 205 colon = test system: COLO 205 colon
SF-295 CNS = test system: SF-295 CNS
UO-31 renal = test system: UO-31 renal
OVCAR-8 ovarian = test system: OVCAR-8 ovarian
M14 melanoma = test system: M14 melanoma
A549 NSCLC = test system: A549 NSCLC
OVCAR-3 ovarian = test system: OVCAR-3 ovarian
UACC-62 melanoma = test system: UACC-62 melanoma
HCT-15 colon = test system: HCT-15 colon
NCI-H460 lung = test system: NCI-H460 lung
HL-60(TB) leukemia = test system: HL-60(TB) leukemia
HOP-62 NSCLC = test system: HOP-62 NSCLC
MDA-N = test system: MDA-N
UACC-257 melanoma = test system: UACC-257 melanoma
SNB-75 CNS = test system: SNB-75 CNS
SK-MEL-5 melanoma = test system: SK-MEL-5 melanoma
MALME-3M melanoma = test system: MALME-3M melanoma
SW-620 colon = test system: SW-620 colon
NCI-H23 lung = test system: NCI-H23 lung

SMILES | TGI (MOLT-4 leukemia) [µM] | TGI (COLO 205 colon) [µM] | TGI (SF-295 CNS) [µM] | TGI (UO-31 renal) [µM] | TGI (OVCAR-8 ovarian) [µM] | TGI (M14 melanoma) [µM] | TGI (A549 NSCLC) [µM] | TGI (OVCAR-3 ovarian) [µM] | TGI (UACC-62 melanoma) [µM] | TGI (HCT-15 colon) [µM] | TGI (NCI-H460 lung) [µM] | TGI (HL-60(TB) leukemia) [µM] | TGI (HOP-62 NSCLC) [µM] | TGI (MDA-N) [µM] | TGI (UACC-257 melanoma) | TGI (SNB-75 CNS) [µM] | TGI (SK-MEL-5 melanoma) [µM] | TGI (MALME-3M melanoma) [µM] | TGI (SW-620 colon) [µM] | TGI (NCI-H23 lung) [µM]
Cc1c(/C=N/NC(=S)Nc2ccccc2Cl)c(=O)n(-c2ccccc2)n1C | > 100 | > 100 | 89.4 | > 100 | 84.1 | > 100 | > 100 | > 100 | > 100 | > 100 | > 100 | > 100 | 78.2 | > 100 | > 100 µM | 54.6 | > 100 | 79.9 | > 100 | 
Cc1cc(=O)[nH]c(NN2C(Cl)C(=O)C2c2ccc(Cl)cc2)n1 (configuration not stated) | 22.7 | 36.2 | > 100 | > 60.9 | 56.5 | 28.9 | > 64.8 | 30.3 | 39.9 | > 53.8 | 31.1 | 12.7 | 48.6 | 72.6 | > 55.1 µM | 42.5 | 25.7 | 32.3 | > 71.7 | 39.1
CC1C(c2ccccc2)OP(=O)(OC(C#N)c2ccccc2)N1C (configuration not stated) | > 100 | > 100 | > 100 | > 100 | > 100 | > 100 | > 100 | > 100 | > 100 | > 100 | > 100 | > 100 | > 100 | > 100 | > 100 µM | > 100 | > 100 | > 100 | > 100 | > 100
CCC(NC(C)c1ccccc1)C(O)c1ccc(OCc2ccccc2)c(OCc2ccccc2)c1 (configuration not stated) | 33.4 | 3.88 | 35.4 | 23.7 | 30.1 | 16.3 | 29.8 | 25.6 | 33.7 | 29.9 | 32.1 | 30.2 | 32.2 | 30.3 | 13.8 µM | 23.2 | 14.4 | 28.9 | 20.3 | 31.6
C#CCOCC12C=CC(O1)C1C(=O)N(C)C(=O)C12 (configuration not stated) | > 100 | > 100 | > 100 | > 100 | > 100 | > 100 | > 100 | > 100 | > 100 | > 100 | > 100 | > 100 | > 100 | > 100 | 21 µM and > 100 µM | > 100 | > 100 | > 100 | > 100 | > 100
Cc1n[nH]c(=O)c2cc(-c3ccccc3)[nH]c12 | > 100 | 71 | > 100 | > 100 | > 100 | > 100 | > 100 | > 100 | > 100 | > 100 | > 100 | > 100 | > 100 | > 100 | > 100 µM | > 100 | > 100 | > 100 | > 100 | > 100
Cc1ccc(-c2nc3ccc(Cl)cc3[nH]2)cc1 | > 100 | > 100 | > 100 | > 100 | > 100 | > 100 | > 100 | > 100 | > 100 | > 100 | > 100 | > 100 | > 100 | > 100 | > 100 µM | > 100 | > 100 | > 100 | > 100 | > 100
CCOC(=O)c1sc2c(c1OC(=O)c1cccs1)c(=O)n(-c1ccccc1)c(=S)n2-c1ccccc1 | 40 | 35.6 | > 100 | 0.925 | 44.9 | 33.4 | 38.8 | 60.6 | 33.4 | 43.4 | 12.4 | 48.4 | 50.3 | > 100 | > 100 µM | > 100 | 32 | 31.5 | 65.5 | 46.5
Fc1ccc2nc3n(c2c1)C(c1c(F)cccc1F)SC3 (configuration not stated) | > 100 | > 100 | > 100 | > 100 | > 100 | > 100 | > 100 | > 100 | > 100 | > 100 | > 100 | 53 | > 100 | 85.3 | > 100 µM | > 100 | > 100 | > 100 | > 100 | > 100
COc1ccc(NC(=O)CC(=O)N2N=C(C)C(N=Nc3ccc(S(=O)(=O)c4ccc(N=NC5C(=O)N(C(=O)CC(=O)Nc6ccc(OC)cc6)N=C5C)cc4)cc3)C2=O)cc1 (configuration not stated) | > 100 | > 100 | > 100 | > 100 | > 100 | > 100 | > 100 | > 100 | > 100 | > 100 | > 100 | > 100 | > 100 | > 100 | > 100 µM | > 100 | > 100 | > 100 | > 100 | > 100
CSc1nc(N)c(NC2OC(CO)C(O)C2O)c(=O)[nH]1 (configuration not stated) | > 100 | > 100 | > 100 | > 100 | > 100 | > 100 | > 100 | > 100 | > 100 | > 100 | > 100 | > 100 | > 100 | > 100 | > 100 µM | > 100 | > 100 | > 100 | > 100 | 
CC1CCCc2c(C#N)c(N)nc(-c3ccc(Cl)cc3)c21 (configuration not stated) | 43.2 | 67.7 | 49.2 | 79.7 | > 100 | 66.4 |  | 44.4 | 38.2 | > 100 | 59 | 83.3 | 24.8 | 93.9 | 79.9 µM | 81.6 | 35.9 | 85.1 | > 100 | 93.7
